Results taken from publication PMC12283027, “Development of Potent and Selective RIPK1 Degraders Targeting Its Nonenzymatic Function for Cancer Treatment” (Journal of Medicinal Chemistry, 2025).

Target: T1, Receptor-interacting protein kinase 1 (RIPK1) (Homo sapiens, UniProt Q13546)
T1 construct: with VHL
Assay: cell-based
Design: HiBiT luminescence of CRISPR-tagged endogenous RIPK1 (C-terminal HiBiT) after PROTAC treatment; degradation DC50 and Dmax
Conditions: HEK293T-RIPK1-HiBiT cells; read-out: Dmax (HEK293T-RIPK1-HiBiT cell line)
Protocol: Screening of RIPK1 Degraders Using HEK-293T-RIPK1-HiBiT cells  3 Primary screening RIPK1 degraders using HEK293T-RIPK1-HiBiT cell line. Cells were seeded in 96-well plates and treated with test compounds for 20 h. After treatment, Bioluminescence signal reflecting RIPK1 protein level was generated by adding Nano-Glo HiBiT detect reagent. A) Bioluminescence signal was visualized using Bio-Rad ChemiDoc MP Imaging system. The grayscale intensity is positively correlated with protein abundance. B) Relative luminescence Units (RLUs) in each well was measured using CLARIOstar plate reader. DC50 values were calculated by nonlinear regression analysis in GraphPad Prism software. DC50 = dose that reduces RIPK1 protein by 50%. D max = maximum reduction of RIPK1 protein achieved by the compound. Guide RNA oligos for RIPK1 (foward: CACCGA-GCCCAT-CCAGGG-TTAGTTC. reverse: AAACGA-ACTAAC-CCTGGA-TGGGCTC) were cloned into Cas9 expression plasmid (pSpCas9–2A-GFP purchased from Addgene), and cotransfected with donor DNA oligo using FuGENE HD Transfection Reagent (Promega). GFP positive cells were FACS sorted and single clones were screened for HiBiT signal by Nano Glo HiBiT Lytic Detection System (Promega).

T1 sequence (Q13546 whole entry): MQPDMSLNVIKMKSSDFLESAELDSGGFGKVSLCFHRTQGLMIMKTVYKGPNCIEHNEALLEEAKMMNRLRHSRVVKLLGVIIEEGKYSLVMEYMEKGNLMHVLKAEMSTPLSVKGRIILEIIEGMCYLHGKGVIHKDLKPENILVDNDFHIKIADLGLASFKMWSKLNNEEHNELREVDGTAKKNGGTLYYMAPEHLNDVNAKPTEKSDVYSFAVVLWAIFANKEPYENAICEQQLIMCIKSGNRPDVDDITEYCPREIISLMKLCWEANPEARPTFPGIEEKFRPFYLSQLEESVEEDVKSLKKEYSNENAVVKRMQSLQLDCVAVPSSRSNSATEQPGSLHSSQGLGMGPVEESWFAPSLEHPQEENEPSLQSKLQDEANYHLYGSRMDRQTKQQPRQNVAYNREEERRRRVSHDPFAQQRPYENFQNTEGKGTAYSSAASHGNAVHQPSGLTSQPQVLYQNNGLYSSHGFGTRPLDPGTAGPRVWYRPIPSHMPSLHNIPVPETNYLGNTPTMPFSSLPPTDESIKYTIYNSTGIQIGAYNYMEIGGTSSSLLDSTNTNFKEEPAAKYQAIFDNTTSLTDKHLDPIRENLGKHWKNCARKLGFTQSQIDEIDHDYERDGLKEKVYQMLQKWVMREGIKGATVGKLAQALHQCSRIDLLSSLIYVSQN
T1 sequence (P40337 whole entry partner): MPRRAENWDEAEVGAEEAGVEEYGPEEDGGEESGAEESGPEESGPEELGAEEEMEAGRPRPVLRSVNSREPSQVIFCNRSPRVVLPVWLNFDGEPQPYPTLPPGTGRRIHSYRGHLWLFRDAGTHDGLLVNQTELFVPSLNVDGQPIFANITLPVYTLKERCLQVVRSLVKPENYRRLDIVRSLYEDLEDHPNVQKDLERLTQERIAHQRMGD

Compound | Dmax
Cc1ncsc1-c1ccc([C@H](C)NC(=O)[C@@H]2C[C@@H](O)CN2C(=O)[C@@H](NC(=O)COc2ccc(CCNC(=O)Cn3cc(-c4cnc(N)c5c(-c6ccc7c(c6)CCN7C(=O)Cc6ccccc6)csc45)cn3)cc2)C(C)(C)C)cc1 [204-2] | 95%
Cc1ncsc1-c1ccc([C@H](C)NC(=O)[C@@H]2C[C@@H](O)CN2C(=O)[C@@H](NC(=O)CCOc2ccc(CCNC(=O)Cn3cc(-c4cnc(N)c5c(-c6ccc7c(c6)CCN7C(=O)Cc6ccccc6)csc45)cn3)cc2)C(C)(C)C)cc1 [204-4] | 96%
Cc1ncsc1-c1ccc([C@H](C)NC(=O)[C@@H]2C[C@@H](O)CN2C(=O)[C@@H](NC(=O)CCCOc2ccc(CCNC(=O)Cn3cc(-c4cnc(N)c5c(-c6ccc7c(c6)CCN7C(=O)Cc6ccccc6)csc45)cn3)cc2)C(C)(C)C)cc1 [204-6] | 81%
Cc1ncsc1-c1ccc([C@H](C)NC(=O)[C@@H]2C[C@@H](O)CN2C(=O)[C@@H](NC(=O)COCCOCCNC(=O)Cn2cc(-c3cnc(N)c4c(-c5ccc6c(c5)CCN6C(=O)Cc5ccccc5)csc34)cn2)C(C)(C)C)cc1 [208-2] | 78%
Cc1ncsc1-c1ccc([C@H](C)NC(=O)[C@@H]2C[C@@H](O)CN2C(=O)[C@@H](NC(=O)COCCOCCOCCNC(=O)Cn2cc(-c3cnc(N)c4c(-c5ccc6c(c5)CCN6C(=O)Cc5ccccc5)csc34)cn2)C(C)(C)C)cc1 [208-4] | 75%
Cc1ncsc1-c1ccc([C@H](C)NC(=O)[C@@H]2C[C@@H](O)CN2C(=O)[C@@H](NC(=O)COCCOCCOCCOCCNC(=O)Cn2cc(-c3cnc(N)c4c(-c5ccc6c(c5)CCN6C(=O)Cc5ccccc5)csc34)cn2)C(C)(C)C)cc1 [208-6] | 55%
Cc1ncsc1-c1ccc([C@H](C)NC(=O)[C@@H]2C[C@@H](O)CN2C(=O)[C@@H](NC(=O)COc2ccc(CNC(=O)Cn3cc(-c4cnc(N)c5c(-c6ccc7c(c6)CCN7C(=O)Cc6ccccc6)csc45)cn3)cc2)C(C)(C)C)cc1 [214-6] | 71%
Cc1ncsc1-c1ccc([C@H](C)NC(=O)[C@@H]2C[C@@H](O)CN2C(=O)[C@@H](NC(=O)CCCOc2ccc(CNC(=O)Cn3cc(-c4cnc(N)c5c(-c6ccc7c(c6)CCN7C(=O)Cc6ccccc6)csc45)cn3)cc2)C(C)(C)C)cc1 [214-7] | 81%
Cc1ncsc1-c1ccc([C@H](C)NC(=O)[C@@H]2C[C@@H](O)CN2C(=O)[C@@H](NC(=O)CCCCOc2ccc(CNC(=O)Cn3cc(-c4cnc(N)c5c(-c6ccc7c(c6)CCN7C(=O)Cc6ccccc6)csc45)cn3)cc2)C(C)(C)C)cc1 [214-8] | 90%
Cc1ncsc1-c1ccc([C@H](C)NC(=O)[C@@H]2C[C@@H](O)CN2C(=O)[C@@H](NC(=O)CCCCCOc2ccc(CNC(=O)Cn3cc(-c4cnc(N)c5c(-c6ccc7c(c6)CCN7C(=O)Cc6ccccc6)csc45)cn3)cc2)C(C)(C)C)cc1 [214-9] | 87%
Cc1ncsc1-c1ccc([C@H](C)NC(=O)[C@@H]2C[C@@H](O)CN2C(=O)[C@@H](NC(=O)CCCCCCOc2ccc(CNC(=O)Cn3cc(-c4cnc(N)c5c(-c6ccc7c(c6)CCN7C(=O)Cc6ccccc6)csc45)cn3)cc2)C(C)(C)C)cc1 [214-10] | 92%
Cc1ncsc1-c1ccc([C@H](C)NC(=O)[C@@H]2C[C@@H](O)CN2C(=O)[C@@H](NC(=O)CNC(=O)Cn2cc(-c3cnc(N)c4c(-c5ccc6c(c5)CCN6C(=O)Cc5ccccc5)csc34)cn2)C(C)(C)C)cc1 [216-9] | 1%
Cc1ncsc1-c1ccc([C@H](C)NC(=O)[C@@H]2C[C@@H](O)CN2C(=O)[C@@H](NC(=O)CCNC(=O)Cn2cc(-c3cnc(N)c4c(-c5ccc6c(c5)CCN6C(=O)Cc5ccccc5)csc34)cn2)C(C)(C)C)cc1 [216-10] | 25%
Cc1ncsc1-c1ccc([C@H](C)NC(=O)[C@@H]2C[C@@H](O)CN2C(=O)[C@@H](NC(=O)CCCNC(=O)Cn2cc(-c3cnc(N)c4c(-c5ccc6c(c5)CCN6C(=O)Cc5ccccc5)csc34)cn2)C(C)(C)C)cc1 [216-11] | 62%
Cc1ncsc1-c1ccc([C@H](C)NC(=O)[C@@H]2C[C@@H](O)CN2C(=O)[C@@H](NC(=O)CCCCNC(=O)Cn2cc(-c3cnc(N)c4c(-c5ccc6c(c5)CCN6C(=O)Cc5ccccc5)csc34)cn2)C(C)(C)C)cc1 [216-12] | 51%
Cc1ncsc1-c1ccc([C@H](C)NC(=O)[C@@H]2C[C@@H](O)CN2C(=O)[C@@H](NC(=O)CCCCCNC(=O)Cn2cc(-c3cnc(N)c4c(-c5ccc6c(c5)CCN6C(=O)Cc5ccccc5)csc34)cn2)C(C)(C)C)cc1 [216-13] | 93%

Compound | Dmax
Cc1ncsc1-c1ccc([C@H](C)NC(=O)[C@@H]2C[C@@H](O)CN2C(=O)[C@@H](NC(=O)CCCCCCNC(=O)Cn2cc(-c3cnc(N)c4c(-c5ccc6c(c5)CCN6C(=O)Cc5ccccc5)csc34)cn2)C(C)(C)C)cc1 [216-14] | 88%
Cc1ncsc1-c1ccc([C@H](C)NC(=O)[C@@H]2C[C@@H](O)CN2C(=O)[C@@H](NC(=O)CCCCCCCNC(=O)Cn2cc(-c3cnc(N)c4c(-c5ccc6c(c5)CCN6C(=O)Cc5ccccc5)csc34)cn2)C(C)(C)C)cc1 [216-15] | 94%
Cc1ncsc1-c1ccc([C@H](C)NC(=O)[C@@H]2C[C@@H](O)CN2C(=O)[C@@H](NC(=O)CCCCCCCCNC(=O)Cn2cc(-c3cnc(N)c4c(-c5ccc6c(c5)CCN6C(=O)Cc5ccccc5)csc34)cn2)C(C)(C)C)cc1 [216-16] | 93%
Cc1ncsc1-c1ccc([C@H](C)NC(=O)[C@@H]2C[C@@H](O)CN2C(=O)[C@@H](NC(=O)COc2ccc(NC(=O)Cn3cc(-c4cnc(N)c5c(-c6ccc7c(c6)CCN7C(=O)Cc6ccccc6)csc45)cn3)cc2)C(C)(C)C)cc1 [217-10] | 96%
Cc1ncsc1-c1ccc([C@H](C)NC(=O)[C@@H]2C[C@@H](O)CN2C(=O)[C@@H](NC(=O)CCCOc2ccc(NC(=O)Cn3cc(-c4cnc(N)c5c(-c6ccc7c(c6)CCN7C(=O)Cc6ccccc6)csc45)cn3)cc2)C(C)(C)C)cc1 [217-11] | 95%
Cc1ncsc1-c1ccc([C@H](C)NC(=O)[C@@H]2C[C@@H](O)CN2C(=O)[C@@H](NC(=O)CCCCOc2ccc(NC(=O)Cn3cc(-c4cnc(N)c5c(-c6ccc7c(c6)CCN7C(=O)Cc6ccccc6)csc45)cn3)cc2)C(C)(C)C)cc1 [217-12] | 93%
Cc1ncsc1-c1ccc([C@H](C)NC(=O)[C@@H]2C[C@@H](O)CN2C(=O)[C@@H](NC(=O)CCCCCOc2ccc(NC(=O)Cn3cc(-c4cnc(N)c5c(-c6ccc7c(c6)CCN7C(=O)Cc6ccccc6)csc45)cn3)cc2)C(C)(C)C)cc1 [217-13] | 92%
Cc1ncsc1-c1ccc([C@H](C)NC(=O)[C@@H]2C[C@@H](O)CN2C(=O)[C@@H](NC(=O)COCCOc2ccc(CNC(=O)Cn3cc(-c4cnc(N)c5c(-c6ccc7c(c6)CCN7C(=O)Cc6ccccc6)csc45)cn3)cc2)C(C)(C)C)cc1 [224-5] | 93%
Cc1ncsc1-c1ccc([C@H](C)NC(=O)[C@@H]2C[C@@H](O)CN2C(=O)[C@@H](NC(=O)COCCOc2ccc(CCNC(=O)Cn3cc(-c4cnc(N)c5c(-c6ccc7c(c6)CCN7C(=O)Cc6ccccc6)csc45)cn3)cc2)C(C)(C)C)cc1 [224-6] | 93%
Cc1ncsc1-c1ccc([C@H](C)NC(=O)[C@@H]2C[C@@H](O)CN2C(=O)[C@@H](NC(=O)COCCOCCOc2ccc(CNC(=O)Cn3cc(-c4cnc(N)c5c(-c6ccc7c(c6)CCN7C(=O)Cc6ccccc6)csc45)cn3)cc2)C(C)(C)C)cc1 [224-7] | 93%
Cc1ncsc1-c1ccc([C@H](C)NC(=O)[C@@H]2C[C@@H](O)CN2C(=O)[C@@H](NC(=O)COCCOCCOc2ccc(CCNC(=O)Cn3cc(-c4cnc(N)c5c(-c6ccc7c(c6)CCN7C(=O)Cc6ccccc6)csc45)cn3)cc2)C(C)(C)C)cc1 [224-8] | 92%
Cc1ncsc1-c1ccc([C@H](C)NC(=O)[C@@H]2C[C@@H](O)CN2C(=O)[C@@H](NC(=O)CN2CCN(C3CCN(C(=O)Cn4cc(-c5cnc(N)c6c(-c7ccc8c(c7)CCN8C(=O)Cc7ccccc7)csc56)cn4)CC3)CC2)C(C)(C)C)cc1 [225-2] | 91%
Cc1ncsc1-c1ccc([C@H](C)NC(=O)[C@@H]2C[C@@H](O)CN2C(=O)[C@@H](NC(=O)CN2CCN(C(=O)Cn3cc(-c4cnc(N)c5c(-c6ccc7c(c6)CCN7C(=O)Cc6ccccc6)csc45)cn3)CC2)C(C)(C)C)cc1 [225-3] | 87%
Cc1ncsc1-c1ccc([C@H](C)NC(=O)[C@@H]2C[C@@H](O)CN2C(=O)[C@@H](NC(=O)CN2CCN(CC3CCN(C(=O)Cn4cc(-c5cnc(N)c6c(-c7ccc8c(c7)CCN8C(=O)Cc7ccccc7)csc56)cn4)CC3)CC2)C(C)(C)C)cc1 [225-4] | 93%
Cc1ncsc1-c1ccc([C@H](C)NC(=O)[C@@H]2C[C@@H](O)CN2C(=O)[C@@H](NC(=O)CN2CCN(CC3CCN(CC4CCN(C(=O)Cn5cc(-c6cnc(N)c7c(-c8ccc9c(c8)CCN9C(=O)Cc8ccccc8)csc67)cn5)CC4)CC3)CC2)C(C)(C)C)cc1 [225-5, (2S,4R)-1-((S)-2-(2-(4-((1-((1-(2-(4-(4-Amino-3-(1-(2-phenylacetyl)indolin-5-yl)thieno[3,2-c]pyridin-7-yl)-1H-pyrazol-1-yl)acetyl)piperidin-4-yl)methyl)piperidin-4-yl)methyl)piperazin-1-yl)acetamido)-3,3-dimethylbutanoyl)-4-hydroxy-N-((S)-1-(4-(4-methylthiazol-5-yl)phenyl)ethyl)pyrrolidine-2-carboxamide] | 93%
